ChEMBL document CHEMBL5316350, “Novel Pyrido[2',1':2,3]imidazo[4,5-c]quinoline Derivative Selectively Poisons Leishmania donovani Bisubunit Topoisomerase 1 to Inhibit the Antimony-Resistant Leishmania Infection in Vivo” (J Med Chem, 2023)
The source made the active and inactive calls. The calls are words filed in the database; no cut-off is given here.

Experiments:
[1] = system: Leishmania donovani; assay: Induction of cell cycle arrest in Leishmania donovani Ag83 promastigotes assessed as decrease in accumulation of cells in S phase at 5 uM measured after 12 hrs by PI staining based flow cytometry (reference value: 18.1%); assay type: functional; design: scale not given: the % may be the effect or the level left
[2] = target: T1, DNA topoisomerase I (Leishmania donovani (strain BPK282A1), UniProt E9BRC0); assay: Inhibition of recombinant Top1 in Leishmania donovani Ag83 whole cell extract assessed as relaxation of supercoiled pBluescript SK(+) DNA measured by agarose gel electrophoresis analysis
T1 sequence (E9BRC0 whole entry): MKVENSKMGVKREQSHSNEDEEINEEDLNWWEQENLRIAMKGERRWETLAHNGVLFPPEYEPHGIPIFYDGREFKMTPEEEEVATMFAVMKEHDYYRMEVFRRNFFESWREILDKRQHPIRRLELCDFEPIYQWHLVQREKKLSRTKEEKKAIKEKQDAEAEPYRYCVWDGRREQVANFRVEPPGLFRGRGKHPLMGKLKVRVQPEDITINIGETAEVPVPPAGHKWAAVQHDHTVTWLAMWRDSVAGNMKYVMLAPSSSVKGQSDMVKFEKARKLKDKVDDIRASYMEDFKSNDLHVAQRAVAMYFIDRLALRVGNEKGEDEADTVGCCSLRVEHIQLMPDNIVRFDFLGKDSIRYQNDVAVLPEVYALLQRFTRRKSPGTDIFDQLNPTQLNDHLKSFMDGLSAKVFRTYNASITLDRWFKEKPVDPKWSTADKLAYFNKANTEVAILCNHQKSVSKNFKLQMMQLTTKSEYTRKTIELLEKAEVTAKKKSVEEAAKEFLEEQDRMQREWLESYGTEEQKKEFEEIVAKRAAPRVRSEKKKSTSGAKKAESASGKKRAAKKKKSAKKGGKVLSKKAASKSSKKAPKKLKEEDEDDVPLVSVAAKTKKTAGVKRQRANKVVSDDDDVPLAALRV

[3] = target: T2, DNA topoisomerase I (Leishmania donovani (strain BPK282A1)) (UniProt E9BRC0); assay: Inhibition of recombinant Top1 in Leishmania donovani Ag83 whole cell extract assessed as relaxation of supercoiled pBluescript SK(+) DNA at 10 uM incubated for 30 mins by agarose gel electrophoresis analysis relative to control
T2 sequence (whole entry): T1 sequence (E9BRC0 whole entry)

[4] = target: T2, DNA topoisomerase I (Leishmania donovani (strain BPK282A1)); assay: Inhibition of Leishmania donovani recombinant Top1 preincubated with compound for 5 mins followed by plasmid DNA addition at 1 to 10 uM measured after 30 mins; details: dose 1-10 µM
[5] = target: T3, DNA topoisomerase 1 (Homo sapiens) (UniProt P11387); assay: Inhibition of human recombinant Top1 infected in Sf9 cells assessed as plasmid DNA relaxation upto 100 uM measured after 30 mins
T3 sequence (whole entry): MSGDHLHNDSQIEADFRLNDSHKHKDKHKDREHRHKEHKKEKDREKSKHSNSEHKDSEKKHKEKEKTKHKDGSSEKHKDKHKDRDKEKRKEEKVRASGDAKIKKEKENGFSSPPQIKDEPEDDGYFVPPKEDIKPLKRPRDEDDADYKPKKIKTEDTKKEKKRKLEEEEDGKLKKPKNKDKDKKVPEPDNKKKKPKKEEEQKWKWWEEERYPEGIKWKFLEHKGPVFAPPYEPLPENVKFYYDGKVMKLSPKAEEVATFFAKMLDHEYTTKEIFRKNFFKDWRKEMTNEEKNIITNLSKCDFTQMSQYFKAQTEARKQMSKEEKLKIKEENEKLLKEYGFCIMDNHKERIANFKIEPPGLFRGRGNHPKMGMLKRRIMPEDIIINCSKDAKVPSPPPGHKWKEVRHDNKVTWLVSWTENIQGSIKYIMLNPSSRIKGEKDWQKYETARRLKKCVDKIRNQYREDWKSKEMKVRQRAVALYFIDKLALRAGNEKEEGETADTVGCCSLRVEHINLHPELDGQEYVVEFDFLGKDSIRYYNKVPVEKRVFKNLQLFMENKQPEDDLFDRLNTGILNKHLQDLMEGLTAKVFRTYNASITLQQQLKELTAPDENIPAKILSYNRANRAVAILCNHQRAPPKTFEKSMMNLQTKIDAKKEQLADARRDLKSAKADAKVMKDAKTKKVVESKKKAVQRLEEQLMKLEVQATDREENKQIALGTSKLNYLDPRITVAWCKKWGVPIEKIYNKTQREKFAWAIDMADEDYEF

[6] = target: T3, DNA topoisomerase 1 (Homo sapiens); assay: Inhibition of human recombinant Top1 assessed as stabilization of clevage complex upto 100 uM measured after 30 mins
[7] = system: Leishmania donovani; assay: Induction of cell cycle arrest in Leishmania donovani Ag83 promastigotes assessed as decrease in accumulation of cells in G0/G1 phase at 5 uM measured after 24 hrs by PI staining based flow cytometry (reference value: 65.1%); assay type: functional; design: scale not given: the % may be the effect or the level left
[8] = system: Leishmania donovani; assay: Induction of cell cycle arrest in Leishmania donovani Ag83 promastigotes assessed as decrease in accumulation of cells in G2/M phase at 5 uM measured after 12 hrs by PI staining based flow cytometry (reference value: 15.1 %); assay type: functional; design: scale not given: the % may be the effect or the level left
[9] = system: Leishmania donovani; assay: Induction of apoptosis in Leishmania donovani Ag83 promastigotes assessed as viable cells measured at 5 uM after 6 hrs by Annexin V-FITC/PI staining based flow cytometric analysis (reference value: 99.4%); assay type: functional
[10] = system: Leishmania donovani; assay: Induction of apoptosis in Leishmania donovani Ag83 promastigotes assessed as late apoptotic cells measured at 5 uM after 12 hrs by Annexin V-FITC/PI staining based flow cytometric analysis (reference value: 0.1%); assay type: functional
[11] = system: MCF7; assay: Induction of apoptosis in human MCF7 cells measured at 5 uM upto 24 hrs by Annexin V-FITC/PI staining based flow cytometric analysis; assay type: functional, cell-based
[12] = system: Leishmania donovani; assay: Antileishmanial activity against antimony resistant Leishmania donovani BHU575 promastigotes assessed as cell viability by MTT assay; assay type: functional, organism-based
[13] = system: Leishmania donovani; assay: Antileishmanial activity in Leishmania donovani BHU575 promastigotes assessed as TUNEL positive cells at 5 uM measured after 24 hrs by confocal microscopic analysis relative to control; assay type: functional
[14] = system: Leishmania donovani; assay: Induction of cell cycle arrest in antimony resistant Leishmania donovani BHU575 promastigotes assessed as decrease in accumulation of cells in G0/G1 phase at 5 uM measured after 24 hrs by PI staining based flow cytometry (reference value: 80.7%); assay type: functional; design: scale not given: the % may be the effect or the level left
[15] = system: Leishmania donovani; assay: Induction of cell cycle arrest in antimony resistant Leishmania donovani BHU575 promastigotes assessed as decrease in accumulation of cells in G2/M phase at 5 uM measured after 6 hrs by PI staining based flow cytometry (reference value: 8.8%); assay type: functional; design: scale not given: the % may be the effect or the level left
[16] = system: Leishmania donovani; assay: Induction of cell cycle arrest in antimony resistant Leishmania donovani BHU575 promastigotes assessed as decrease in accumulation of cells in G2/M phase at 5 uM measured after 12 hrs by PI staining based flow cytometry (reference value: 8.8%); assay type: functional; design: scale not given: the % may be the effect or the level left
[17] = Selectivity index ratio of EC50 for BALB/c mouse macrophage to ratio of EC50 for antileishmanial activity against Leishmania amastigotes; assay type: toxicity; details: mouse macrophages, read-out: Ratio EC50
[18] = system: Leishmania donovani; assay: Antileishmanial activity against Leishmania donovani Ag83 promastigotes infected in BALB/c mouse model of visceral leishmaniasis assessed as fold change in T-helper type 1 immunological evoke response in splenocytes by measuring increase in TNF alpha cytokine level treated after 3 weeks of infection at 5 to 10 mg/kg, ip twice a week for 3 weeks by RT-PCR analysis; assay type: functional; details: dose 5-10 mg/kg

## COc1cc(-c2nc3ccccc3c3nc4ccccn4c23)cc(OC)c1OC
[1]
  Activity: 43.1%
[2]
  IC50: 6.5 µM
[3]
  inhibition: 85%
[4]
  inhibition: inactive
[5]
  inhibition: inactive
[6]
  inhibition: inactive
[7]
  Activity: 31.5%
[8]
  Activity: 14.5%
[9]
  Activity: 5%
[10]
  Activity: 61%
[11]
  Activity: inactive
[12]
  EC50: 4.8 µM
[13]
  Activity: 85%
[14]
  Activity: 38%
[15]
  Activity: 2.6%
[16]
  Activity: 27.5%
[17]
  selectivity ratio: 9.25
[18]
  fold change (FC): 5
